Reference: patent US9821173B2, “Anti-cancer agents and methods of use” (Case Western Reserve University, priority 2013, dated 2017)

What was measured:
CEM-C7 = test: Cell proliferation / cytotoxicity assay; type: cell-based; settings: for IC50: cell viability, cell-titer blue, up to 48 hours
Description: (§1) HeLa, MCF-7, HCT-116, and CEM-C7 were obtained from the American Type Culture Collection (Manassas, Va., USA). All adherent cell lines were maintained in Dulbecco's modified Eagle's medium (Mediatech) with 100 U/ml penicillin (Invitrogen), 100 μg/ml streptomycin (Invitrogen), 0.25 μg/ml amphotericin B (Invitrogen), and 10% fetal bovine serum (USA Scientific) and incubated at 37° C. with 5% CO2. CEM cells were maintained in RPMI-1640 media supplemented with 100 U/ml penicillin, 100 μg/ml streptomycin, 0.25 μg/ml amphotericin B, and 10% fetal bovine serum and incubated at 37° C. with […].
(§2) Cells were plated at a density of 7,000-13,000/well in 200 μl of media overnight in a 96-well plate. Each (phosphine)gold(I)-indole was added to wells in a dose-dependent manner (0.01-100 μM). Cells were treated with compounds for variable time periods (8-48 hours). With adherent cell lines, medium was removed from the wells and then 100 μl of fresh medium was added into each well followed by the addition of 20 μl of cell titer-blue reagent (Promega). Cells were incubated with reagent for 1-4 hrs and the optical density of samples was read at 560 nm using a microplate reader. The background absorbance of dye with media was subtracted from each sample. Cell viability was then normalized against cells treated with DMSO. IC50 values were obtained using a fit of the data to Equation 1: Y=100%/[1+(IC50/Inhibitor)] (1)
(§3) where y is the fraction of viable cells, IC50 is the concentration of inhibitor that inhibits 50% cell growth, and Inhibitor is the concentration of compound tested.
(§4) The cellular effects of these (phosphine)gold(I) indoles were tested against several cancer cell lines including HeLa (cervical cancer), MCF-7 (breast cancer), HCT-116 (colon cancer), and CEM-C7 (leukemia). The dose-dependency of each modified indole on cell viability was assessed using a cell-titer blue assay as previously described. In these experiments, cells were exposed to variable concentrations of each (phosphine)gold(I) indole (0.01-100 μM) for up to 48 hours and then assessed for viability.
Defining this mechanism of cell death is important as necrosis can cause various side-effects including septic shock and kidney failure that can obviously compromise patient health.

BSA = BSA (Bos taurus, UniProt P02769); test: Reactivity of Au(I)-compounds with BSA thiol (DTNB -SH titer); parameters: species or system bovine; settings: 120 μM compound, Au(I)/BSA ratios up to 4:1, one hour, 37° C., PBS
Description: PBS was used as the reaction buffer.
We tested the ability of various Au(I)-complexes to non-selectively react with BSA. […] P2 resin was effective in retaining Au(I)-containing compounds including compound 3 and compound 4. However, BSA was not retained in the resin as >95% of the BSA loaded into the Penefsky column is recovered in the eluant. […] Values obtained from reactions containing BSA incubated with the various Au(I) complexes were compared to identical reactions containing BSA alone and eluted through Penefsky columns.

HeLa = test: Cell proliferation assay (cell-titer blue); type: cell-based; settings: for IC50: cell viability, cell-titer blue, up to 48 hours
Description: as §1, §2, §3, §4

MCF-7 = test: Cell proliferation assay (cell-titer blue); type: cell-based; settings: cell viability, up to 48 hours
Description: as §1, §2, §3, §4

HCT-116 = test: Cell proliferation assay (cell-titer blue); type: cell-based; settings: cell viability, up to 48 hours, read-out: IC50 HCT116
Description: as §1, §2, §3, §4

HeLa cells = settings: HeLa, data not shown
Description: HeLa cells were plated at a density of 250,000-300,000 cells/mL. After 24 hr cells, the cells were irradiated in a dose dependent manner (0-4 Gy) using a ^137Cs gamma source. After treatment, the cells were trypsinized and plated at a density between 300-4000 cells in 60 mm dishes. Cells were allowed to grow colonies (1 colony≧50 cells) for 10-14 days, stained with 0.25% crystal violet, and manually counted to measure the number of colonies. Survival fractions were normalized against positive controls (colony formation with no radiation) and plotted as the log percent survival versus dose of radiation. Each experiment was performed an average of four (4) times with cells propagated on several different days.
In this case, we measured the effects of combining these (phosphine)gold(I) indoles with ionizing radiation (IR), a widely used therapy used to treat solid tumors. […] After this time frame, media containing the (phosphine)gold(I) indole was removed and replaced with fresh media. The cells were then irradiated in a dose-dependent fashion from 0 to 6 Gy. Cell viability was assessed using a clonogenic assay that measures colony formation and thus accurately defines the cytotoxic effects of IR exposure. […] The initial linear phase is particularly important as this reflects repair of non-lethal damage inflicted by clinically-relevant doses of IR (˜2 Gy).

BSA, sequence (P02769 25-607): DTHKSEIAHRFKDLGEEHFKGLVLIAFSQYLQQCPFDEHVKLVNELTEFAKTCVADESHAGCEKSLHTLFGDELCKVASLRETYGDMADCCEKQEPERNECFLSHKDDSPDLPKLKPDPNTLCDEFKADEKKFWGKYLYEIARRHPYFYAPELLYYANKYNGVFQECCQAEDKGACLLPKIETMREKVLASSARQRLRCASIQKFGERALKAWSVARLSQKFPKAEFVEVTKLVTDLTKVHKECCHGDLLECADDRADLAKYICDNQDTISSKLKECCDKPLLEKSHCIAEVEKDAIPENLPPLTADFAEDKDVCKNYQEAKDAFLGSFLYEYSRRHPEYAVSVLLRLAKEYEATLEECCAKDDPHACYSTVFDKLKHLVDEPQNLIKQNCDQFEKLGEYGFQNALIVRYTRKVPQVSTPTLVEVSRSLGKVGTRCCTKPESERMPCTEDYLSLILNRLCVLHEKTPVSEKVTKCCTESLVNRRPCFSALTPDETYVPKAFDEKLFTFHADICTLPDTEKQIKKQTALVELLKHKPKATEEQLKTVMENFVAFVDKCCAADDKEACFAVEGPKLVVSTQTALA

Row | SMILES | mechanism of cell death (propidium iodide uptake) (CEM-C7; CEM-C7 cells) | LD50 (CEM-C7; cytotoxic effect, leukemia cell line CEM-C7) [µM] | reactivity with BSA (relative thiol content, -SH titer) (BSA) | anti-cancer (cytostatic or cytotoxic) effects (HeLa; up to the highest concentration of 100 μM) | IC50 (CEM-C7) [µM] | IC50 (MCF-7) [µM] | IC50 (HeLa) [µM] | IC50 (HCT-116) [µM] | enhancement of the cell killing effects of IR (HeLa cells)
1 | [Au+].[Br-].c1ccc(P(c2ccccc2)c2ccccc2)cc1 [BrAuPPh3, reference compound] | causes necrosis | 0.22 ± 0.05 | facile interactions | does not produce significant cytostatic or cytotoxic effects |  |  |  |  | 
2 | CC(C)(C)OC(=O)n1ccc2c[c]([Au-][P+](c3ccccc3-c3ccccc3)(C3CCCCC3)C3CCCCC3)ccc21 [Compound 5, 5-{[1,1′-biphenyl]-2-yldicyclohexylphosphine aurate(I)}-tert-butyl H-indole-1-carboxylate] |  |  |  |  | 2.1 | 2.3 | 2.4 | 3.4 | 
3 | CC(C)(C)C(=O)OCn1ccc2c[c]([Au-][P+](c3ccccc3-c3ccccc3)(C3CCCCC3)C3CCCCC3)ccc21 [Compound 6, 5-{[1,1′-biphenyl]-2-yldicyclohexylphosphine aurate(I)}-(1H-indol-1-yl)methyl pivalate] |  |  |  |  | 0.42 | 0.96 | 0.66 | 1.8 | do not enhance the cell killing effects of IR
4 | Cn1ccc2c[c]([Au-][P+](c3ccccc3-c3ccccc3)(C3CCCCC3)C3CCCCC3)ccc21 [Compound 7, 5-{[1,1′-biphenyl]-2-yldicyclohexylphosphine aurate(I)}-1-methyl-1H-indole] |  |  |  |  | 1.43 | 3.25 | 0.46 | 0.38 | do not enhance the cell killing effects of IR
